Results from US20180230160A1, “2-AMINO-7A-PHENYL-3,4,4A,5,7,7A-HEXAHYDROFURO[3,4-B]PYRIDINES AS BACE1 INHIBITORS” (H. Lundbeck A/S, priority 2015, published 2018).
Where two headings read alike, the source gives them in different places.

How the values were obtained:
P-gp (MDR1) = test: MDCK-MDR1 assay (permeability, efflux ratio); assay type: in vitro ADME; settings: dog, Papp BA/Papp AB, 60-minute incubation
Protocol: The permeability of the test compounds was assessed in MDCK-MDR1 cells that were cultured to confluency (4-6 days) in a 96 transwell plate. Test compounds were diluted with the transport buffer (HBSS+1% BSA) to a concentration of 0.5 μM and applied to the apical or basolateral side of the cell monolayer. Permeation of the test compounds from A to B direction or B to A direction was determined in triplicate over a 60-minute incubation time at 37° C. and 5% CO2 with a relative humidity of 95%. Test compounds were quantified by LC-MS/MS analysis based on the peaks area ratios of analyte/IS in both the receiver and donor wells of the transwell plate. The apparent permeability coefficient Papp (cm/s) was calculated using the equation: […]
Where dCr/dt is the cumulative concentration of compound in the receiver chamber as a function of time (μM/s); Vr is the solution volume in the receiver chamber (0.05 mL on the apical side; 0.25 mL on the basolateral side); A is the surface area for the transport, i.e. 0.0804 cm^2 for the area of the monolayer; CO is the initial concentration in the donor chamber (μM).

human BACE1 = human BACE1 (Homo sapiens, UniProt P56817); test: BACE1 binding assay (SPA-based radioligand binding); parameters: biotin (biotinylated form); made in house; host or cells: Freestyle HEK293 cells; settings: pH 4.5, 10 nM radioligand, Ki=IC50/(1+L/Kd)
Protocol: The binding assay was performed as SPA-based assay using a biotinylated form of human BACE1 recombinantly expressed and subsequently purified from Freestyle HEK293 cells. The binding assay was run in a 50 mM sodium acetate buffer, pH 4.5 containing 50 mM NaCl and 0.03% Tween-20 in white clear bottom 384 plates (Corning #3653). 10 nM (final concentration) radioligand ([^3H]—N-((1S,2R)-1-benzyl-3-cyclopropylamino-2-hydroxy-propyl)-5-(methanesulfonyl-methyl-amino)-N—((R)-1-phenyl-ethyl)-isophthalamide) (TRQ11569 purchased from GE Healthcare) was mixed with test compound at a given concentration, 6 nM (final concentration) human BACE1 and 25 μg Streptavidin coated PVT core SPA beads (RPNQ0007, GE Healthcare Life Sciences) in a total volume of 40 μl. Several concentrations of each test compound were tested in the assay for […] determination. The plates were incubated for one hour at room temperature and counted in a Wallac Trilux counter. Total and non-specific binding were determined using buffer and 1 μM (final concentration) of the high affinity BACE1 reference inhibitor (S)-6-[3-chloro-5-(5-prop-1-ynyl-pyridin-3-yl)-thiophen-2-yl]-2-imino-3,6-dimethyl-tetrahydro-pyrimidin-4-one, respectively. For each test compound, a 1050 value (the concentration mediating 50% inhibition of the specific binding of the radioligand) was determined from concentration-response curve and used to calculate the Ki from the equation Ki=IC50/(1+L/Kd), where L and Kd are the final concentration of the radioligand used in the assay and the dissociation constant of the radioligand, respectively. The Kd of the radioligand was determined from saturation binding experiments.

Aβ40 peptide = test: Assessment of Aβ peptide levels in rat brain and plasma following BACE1 inhibition (Aβ40 ELISA); assay type: in vivo; settings: 3 hours post dose, vs vehicle
Protocol: Assessment of Aβ Peptide Levels in Rat Brain and Plasma Following BACE1 Inhibition. Animals.
(§1) Young adult Male Sprague Dawley rats of approximately 250 g weight were purchased from Charles River and received 0-30 mg/kg of vehicle (10% HP betaCD+1M MeSO4, pH 2.5) or test compounds (dissolved in vehicle) only by oral gavage (p.o). The compounds are dosed at a volume of 5 ml/kg. Cohorts of 5-10 animals were established for each treatment condition.
(§2) At T=180 minutes after initial dosing the animals were stunned and decapitated with a guillotine. Trunk-blood was sampled in EDTA coated tubes after decapitation of the animal. The blood was centrifuged at 2200G at 4° C. for 15 minutes and the plasma was collected and frozen at −80° C. The blood was aliquoted for Aβ ELISA and DMPK analysis. Immediately following sacrifice, the brain was extracted and split into 2 halves. The right hemibrains were snap frozen on dry ice and stored at −80° C. The left half was dissected; with the front forebrain taken for Aβ ELISA and the remainder used for DMPK analysis. These samples were also snap frozen on dry ice and stored at −80° C. until use for analysis.
The cortex samples were thawed slightly on wet ice before they were homogenized with a small volume dispersing instrument (T10 basic ULTRA-TURRAX®) which was set at speed 5 for approximately 5-7 sec. The tissue was processed in a 10 times volume of the weight, for example 100 mg of tissue was homogenized in 1000 μL of Homogenization buffer. Homogenization buffer: 50 ml Milli Q water+50 nM NaCl+0.2% Diethylamin (DEA)+1 tablet of Complete Protease inhibitor cocktail+1 nM 4-(2-aminoethyl) benzenesulfonyl fluoride hydrochloride irreversible serine protease inhibitor (AEBSF).
After homogenization 450 μL aliquots of the samples are collected into a 1.5 ml Eppendorf tube and placed on wet ice, 0.5% NP-40 (50 ul) was added to all samples and then they were incubated on ice for 30 min. After which all samples were sonicated using an Ultrasonic homogenizer with 20 kHz homogeneous sound (SONOPLUS HD2070, Bandelin Electronic) 10 pulse set at 12-13% power to extract all the Aβ species. The samples were then centrifuged (Ole Dich 157 MPRF Micro centrifuge) at 20000G for 20 minutes at 4° C. After centrifugation 285 μL of the supernatant was pipetted into 600 μL microtubes tubes and neutralized with 15 μL of 1M Tris-HCL buffer.
WAKO 294-62501 Human/Rat Abeta amyloid (40) kit was used for all ELISA analyses. 30 μL plasma samples or 30 μL of the cortex supernatants generated as described above were placed in 600 μL microtubes tubes on wet ice. To this 30 μL of 8M urea (AppliChem A1049, 9025) was added to generate a 2-fold dilution. Both plasma and cortex supernatants were incubated on ice for 30 min. Standard rows were prepared from the standard peptide stock provided in the kit and standard diluent containing 1.6M urea (200 μL 8M urea+800 μL of standard diluent) and 0.8M urea (400 μL 8M Urea+3600 μL Standard diluent). A serial 2-fold dilution of Aβ40 from 100 pmol/ml to 0 pmol/L was prepared for the assay.
After incubation with urea, all samples were further diluted by addition of 5 times standard diluent from the Kit. This was done by adding 240 μL Standard Diluent to 60 μL sample/urea mixture, which was then mixed well. 100 μL of each diluted sample was pipetted into designated wells of the ELISA plate in duplicates. The plate was then covered and incubated overnight at 4° C. The following day, the ELISA kit was brought to room temperature before use. The incubated plate was washed 5 times with the 20× washing solution diluted in Milli Q water. 100 μL HRP-conjugate was applied to each well, and the plate was covered and incubates at 4° C. for 1 hr. The wash was repeated again for 5 times. 100 μL 3,3′,5,5′-Tetramethylbenzidine (TMB) solution was applied to each well and the plate was covered and incubated in the dark at room temperature for 30 minutes. […]

[1] = Compound exposure in rat brain and plasma after oral dosing (DMPK analysis); assay type: in vivo; settings: male, Sprague Dawley, 3 hours post dose; for concentration at 3 h: read-out: Exp (exposure); for Kp at 3 h: brain/plasma, read-out: Brain/Plasma ratio
Protocol: as §1, §2
The results of the administration of representative Compounds of Examples 1, 2, 5, […], of brain and plasma samples collected at 3 hours post dose and then following exposures, as described above, are tabulated below.

human BACE1, sequence (P56817 46-501): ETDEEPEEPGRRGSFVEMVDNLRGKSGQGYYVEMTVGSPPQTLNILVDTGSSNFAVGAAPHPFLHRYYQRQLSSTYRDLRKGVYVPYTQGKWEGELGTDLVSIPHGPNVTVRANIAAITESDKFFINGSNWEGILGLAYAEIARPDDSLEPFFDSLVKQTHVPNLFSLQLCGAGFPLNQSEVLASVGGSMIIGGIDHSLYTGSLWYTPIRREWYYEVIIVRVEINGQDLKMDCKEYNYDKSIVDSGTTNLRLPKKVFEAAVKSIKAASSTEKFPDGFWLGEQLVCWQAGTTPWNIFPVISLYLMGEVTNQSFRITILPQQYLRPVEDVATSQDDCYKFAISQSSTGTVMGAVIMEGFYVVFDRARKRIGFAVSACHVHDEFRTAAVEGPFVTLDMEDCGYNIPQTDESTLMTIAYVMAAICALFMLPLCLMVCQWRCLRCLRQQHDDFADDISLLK

Structure (SMILES) | efflux ratio at 60 min, 0.5 μM (P-gp (MDR1)) | Ki (human BACE1) | further results
COc1ccc(C(=O)Nc2cc(F)c(F)c([C@]34COC[C@H]3C[C@@](F)(CF)C(N)=N4)c2)nc1 [Example 25, N-[3-[(3S,4aS,7aS)-2-amino-3-fluoro-3-(fluoromethyl)-4,4a,5,7-tetrahydrofuro[3,4-b]pyridin-7a-yl]-4,5-difluoro-phenyl]-5-methoxy-pyridine-2-carboxamide] |  | 230 nM | 
[2H]C([2H])([2H])Oc1ccc(C(=O)Nc2ccc(F)c([C@]34COC[C@@]3(F)C[C@](C)(F)C(N)=N4)c2)nc1 [Example 1, N-(3-((3S,4aR,7aS)-2-amino-3,4a-difluoro-3-methyl-3,4,4a,5-tetrahydrofuro[3,4-b]pyridin-7a-yl)-4-fluorophenyl)-5-(methoxy-d3)picolinamide] |  |  | Aβ40 reduction (Aβ40 peptide; Brain, 10 mg/kg p.o.): 34%; Aβ40 reduction (Aβ40 peptide; Brain, 30 mg/kg p.o.): 54%; Aβ40 reduction (Aβ40 peptide; Plasma, 10 mg/kg p.o.): 38%; Aβ40 reduction (Aβ40 peptide; Plasma, 30 mg/kg p.o.): 52%; concentration at 3 h ([1]; Brain, 10 mg/kg p.o.): 194 ng/g; concentration at 3 h ([1]; Brain, 30 mg/kg p.o.): 951 ng/g; concentration at 3 h ([1]; Plasma, 10 mg/kg p.o.): 184 ng/g; concentration at 3 h ([1]; Plasma, 30 mg/kg p.o.): 634 ng/g; Kp at 3 h ([1]; 10 mg/kg p.o.): 1.06; Kp at 3 h ([1]; 30 mg/kg p.o.): 1.5
NC1=N[C@@]2(c3cc(NC(=O)c4ccc(F)cn4)cc(F)c3F)COC[C@H]2C[C@]1(F)CF [Example 19, N-[3-[(3R,4aS,7aS)-2-amino-3-fluoro-3-(fluoromethyl)-4,4a,5,7-tetrahydrofuro[3,4-b]pyridin-7a-yl]-4,5-difluoro-phenyl]-5-fluoro-pyridine-2-carboxamide] |  | 340 nM | 
C[C@]1(F)C[C@]2(F)COC[C@]2(c2cc(NC(=O)c3cnc(C(F)F)cn3)ccc2F)N=C1N [Example 3, N-(3-((3S,4aR,7aS)-2-amino-3,4a-difluoro-3-methyl-3,4,4a,5,7,7a-hexahydrofuro[3,4-b]pyridin-7a-yl)-4-fluorophenyl)-5-(difluoromethyl)pyrazine-2-carboxamide] | 0.96 | 48 nM | 
[2H]C([2H])([2H])Oc1cnc(C(=O)Nc2ccc(F)c([C@]34COC[C@@]3(F)C[C@@](C)(F)C(N)=N4)c2)cn1 [Example 13, N-(3-((3R,4aR,7aS)-2-amino-3,4a-difluoro-3-methyl-3,4,4a,5-tetrahydrofuro[3,4-b]pyridin-7a-yl)-4-fluorophenyl)-5-(methoxy-d3)pyrazine-2-carboxamide] |  | 29 nM | 

Further molecules by falling Ki (human BACE1), results first:

efflux ratio at 60 min, 0.5 μM (P-gp (MDR1)) | Ki (human BACE1) | Structure (SMILES) | further results
1.33 | 23 nM | Cc1csc(C(=O)Nc2ccc(F)c([C@]34COC[C@@]3(F)C[C@@](C)(F)C(N)=N4)c2)n1 [Example 9, N-(3-((3R,4aR,7aS)-2-amino-3,4a-difluoro-3-methyl-3,4,4a,5,7,7a-hexahydrofuro[3,4-b]pyridin-7a-yl)-4-fluorophenyl)-4-methylthiazole-2-carboxamide] | 
2.46 | 22 nM | Cc1nc(C(=O)Nc2ccc(F)c([C@]34COC[C@@]3(F)C[C@@](C)(F)C(N)=N4)c2)co1 [Example 10, N-(3-((3R,4aR,7aS)-2-amino-3,4a-difluoro-3-methyl-3,4,4a,5,7,7a-hexahydrofuro[3,4-b]pyridin-7a-yl)-4-fluorophenyl)-2-methyloxazole-4-carboxamide] | 
1.23 | 14 nM | C[C@@]1(F)C[C@]2(F)COC[C@]2(c2cc(NC(=O)c3cnc(C(F)F)cn3)ccc2F)N=C1N [Example 8, N-(3-((3R,4aR,7aS)-2-amino-3,4a-difluoro-3-methyl-3,4,4a,5,7,7a-hexahydrofuro[3,4-b]pyridin-7a-yl)-4-fluorophenyl)-5-(difluoromethyl)pyrazine-2-carboxamide] | 
0.91 | 9.3 nM | C[C@@]1(F)C[C@]2(F)COC[C@]2(c2cc(NC(=O)c3ccc(Cl)cn3)ccc2F)N=C1N [Example 14, N-(3-((3R,4aR,7aS)-2-amino-3,4a-difluoro-3-methyl-3,4,4a,5,7,7a-hexahydrofuro[3,4-b]pyridin-7a-yl)-4-fluorophenyl)-5-chloropicolinamide] | 
1.01 | 6.4 nM | C[C@]1(F)C[C@]2(F)COC[C@]2(c2cc(NC(=O)c3ccc(Cl)cn3)ccc2F)N=C1N [Example 6, N-(3-((3S,4aR,7aS)-2-amino-3,4a-difluoro-3-methyl-3,4,4a,5,7,7a-hexahydrofuro[3,4-b]pyridin-7a-yl)-4-fluorophenyl)-5-chloropicolinamide] | 
